# Patent publication US7553506B2, “Herbal compositions for prevention and treatment of rheumatic and inflammatory diseases and method of preparing the same” (Shenzhen Qianrenren Sci. & Tech. Development Co., priority 2004, dated 2009)
# What was measured:
# [1] = system: Outpatients with active rheumatoid arthritis; experiment: Clinical study of Anti-Rheumatoid Arthritis Capsule (ARC) versus active control (MTX combination); conditions: for % of patients with 50% improvement (R50) / number of patients with 50% improvement (R50) / number of patients with 75% improvement (R75) / number of patients with 100% improvement (R100) / % of patients with 75% improvement (R75): 18 patients per group
# Method: Anti-Rheumatoid Arthritis Capsule (ARC) is a capsule made of the powder form of the herbal composition of the present invention in accordance with the components and method shown in Example 1. To assess the basic efficacy and side effect of ARC, an open, randomized and active controlled clinical trial was carried out.
# Outpatients with active rheumatoid arthritis, according to the classification criteria of the American Arthritis College, without other significant medical conditions were recruited. […] Safety and compliance were monitored every 2 weeks with complete outcome evaluation at 4, 8, and 12 weeks.
# Thirty-six (36) typical active RA patients were selected and randomly divided into two groups. Observe group, 18 patients, was treated with ARC (4 capsules t.i.d., each capsule is about 0.3 g).
# The improvement was denoted as either R50, R75 or R100 reflecting either an improvement to the 50%, 75%, or 100% level in the parameters based on the improvements of signs and symptoms including rest pain assessment, duration of morning stiffness, number of tender joint and the index of tenderness, number of swelling joints and the swelling index, grip strength, joint function, erythrocyte sedimentation rate, C reaction protein, and rheumatoid factor.
# [2] = system: Outpatients with active rheumatoid arthritis; experiment: Clinical study of Anti-Rheumatoid Arthritis Liquor (ARL) versus active control (MTX combination); assay type: in vivo, human; conditions: for number of patients with 50% improvement (R50) / number of patients with 75% improvement (R75) / number of patients with 100% improvement (R100) / % of patients with 50% improvement (R50) / % of patients with 75% improvement (R75) / % of patients with 100% improvement (R100): 20 patients per group
# Method: Outpatients with active rheumatoid arthritis, according to the classification criteria of the American Arthritis College, without other significant medical conditions were recruited. 40 patients were recruited, 7 male and 33 female. Their ages were ranged from 28-67 years old with average of 46.8 years old. The disease duration of the patients ranged from 0.4 to 13 years.
# […] Observe group, 20 patients, was treated with ARL (30 ml/d). It was taken before sleep or equally divided to be taken in the morning and evening.
# The outcome measurements for the both groups were divided to signs and symptoms, including: rest pain assessment, duration of morning stiffness, number of tender joint and the index of tenderness, number of swelling joints and the swelling index, grip strength, joint function, erythrocyte sedimentation rate, C reaction protein, and rheumatoid factor. The individual parameter improvement was calculated through the following formula:
# The total improvement was used to compare the efficacy between the two groups. In order to accurately reflect the drug efficacy, 50% improvement, 75% improvement, and 100% improvement (R50, R75 and R100) were used as statistical endpoint for efficacy.
# [3] = system: rheumatoid arthritis; conditions: general statement on RA therapy; cited from earlier work
# [4] = 12 weeks, listed as active control
# [5] = 26 weeks, listed as combination of oral MTX and NSAID
# [6] = 52 weeks, listed as combination of oral MTX and NSAID
compound,measurement,setting,value
"CN(Cc1cnc2nc(N)nc(N)c2n1)c1ccc(C(=O)N[C@@H](CCC(=O)O)C(=O)O)cc1 [MTX, Methotrexate]",% of patients with 50% improvement (R50),[1]; 4 weeks,(11.1) %
same,number of patients with 50% improvement (R50),[1]; 4 weeks,2
same,number of patients with 75% improvement (R75),[1]; 4 weeks,0
same,number of patients with 100% improvement (R100),[1]; 4 weeks,0
same,% of patients with 50% improvement (R50),"[1]; 4 weeks, listed as active control",11.1%
same,% of patients with 50% improvement (R50),[1]; 8 weeks,(11.1) %
same,number of patients with 50% improvement (R50),[1]; 8 weeks,2
same,number of patients with 75% improvement (R75),[1]; 8 weeks,0
same,number of patients with 100% improvement (R100),[1]; 8 weeks,0
same,% of patients with 50% improvement (R50),"[1]; 8 weeks, listed as active control",11.1%
same,patients who complained about stomachalgia,"[1]; 12 weeks observation, 18 patients",3 patients
same,% of patients with 50% improvement (R50),[1]; 12 weeks,(55.5) %
same,% of patients with 75% improvement (R75),[1]; 12 weeks,(11.1) %
same,number of patients with 50% improvement (R50),[1]; 12 weeks,10
same,number of patients with 75% improvement (R75),[1]; 12 weeks,2
same,% of patients with 50% improvement (R50),[1]; [4],55.5%
same,% of patients with 75% improvement (R75),[1]; [4],11.1%
same,time required to reach R50,[2],8-12 weeks
same,time required to reach R75,[2],20-32 weeks
same,time required to reach R100,[2],52 weeks
same,number of patients with 50% improvement (R50),[2]; 4 weeks,0
same,number of patients with 75% improvement (R75),[2]; 4 weeks,0
same,number of patients with 100% improvement (R100),[2]; 4 weeks,0
same,number of patients with 50% improvement (R50),[2]; 8 weeks,0
same,number of patients with 75% improvement (R75),[2]; 8 weeks,0
same,number of patients with 100% improvement (R100),[2]; 8 weeks,0
same,% of patients with 50% improvement (R50),[2]; 12 weeks,(45) %
same,number of patients with 50% improvement (R50),[2]; 12 weeks,9
same,number of patients with 75% improvement (R75),[2]; 12 weeks,0
same,number of patients with 100% improvement (R100),[2]; 12 weeks,0
same,% of patients with 50% improvement (R50),"[2]; 12 weeks, listed as combination of oral MTX and NSAID",45%
same,% of patients with 50% improvement (R50),[2]; 26 weeks,(40) %
same,% of patients with 75% improvement (R75),[2]; 26 weeks,(50) %
same,number of patients with 50% improvement (R50),[2]; 26 weeks,8
same,number of patients with 75% improvement (R75),[2]; 26 weeks,10
same,number of patients with 100% improvement (R100),[2]; 26 weeks,0
same,% of patients with 50% improvement (R50),[2]; [5],40%
same,% of patients with 75% improvement (R75),[2]; [5],50%
same,% of patients with 75% improvement (R75),[2]; 52 weeks,(75) %
same,% of patients with 100% improvement (R100),[2]; 52 weeks,(25) %
same,number of patients with 50% improvement (R50),[2]; 52 weeks,0
same,number of patients with 75% improvement (R75),[2]; 52 weeks,15
same,number of patients with 100% improvement (R100),[2]; 52 weeks,5
same,% of patients with 75% improvement (R75),[2]; [6],75%
same,% of patients with 100% improvement (R100),[2]; [6],25%
same,"Time Required for Improvement, R50","[2]; Table 5, value ± spread",15.2 ± 5.43 week
same,"Time Required for Improvement, R75","[2]; Table 5, value ± spread",27.7 ± 10.5 week
same,"Time Required for Improvement, R100","[2]; Table 5, value ± spread",47.2 ± 10.7 week
same,time usually required to show some clinical effect,[3],12-24 weeks
